Experimental data from US20090118350A1, “Biomarkers for Identifying Efficacy of Tegaserod in Patients with Chronic Constipation” (priority 2005, published 2009).

Tested on: patients with chronic constipation
Experiment: Clinical trial, secondary efficacy RESP12: increase of 1 or more CSBM/week over baseline after 12 weeks of treatment, by subgroup and genotype
Type: in vivo, human
Settings: for Odds Ratio: 6-mg bid vs placebo; for % Responders T6 / Odds Ratio (T6 v P) / % Responders: 6-mg bid
Method: Introduction. A clinical trial was performed to evaluate the efficacy of tegaserod (Zelmac®/Zelnorm™) at 6 mg bid (12 mg/day) or 2 mg bid (4 mg/day) vs. placebo by measuring the number of complete spontaneous bowel movements (CSBM) during the first 4 weeks of treatment. Secondary objectives included evaluating the number of CSBM during the entire 12-week treatment period, bowel habits, laxative use, and safety and tolerability issues. The clinical trial design consisted of a 2-week baseline period without medication, a 12-week, randomized, double-blind, placebo-controlled treatment period, and a 4-week withdrawal period without study medication. As part of the clinical trial, DNA was collected from patients at screening for pharmacogenetic analysis to evaluate genetic polymorphisms relating to drug targets and disease aetiology.
Clinical assessments. […] The primary efficacy endpoint evaluated was the increase of 1 or more CSBM/week over baseline after 4 weeks of treatment. A secondary endpoint evaluated in this genotyping study was RESP12, the increase of 1 of more CSBM/week over baseline after 12 weeks of treatment. Patients were classified as responders if they met these criteria and had completed at least 7 days of treatment. Additional secondary efficacy assessments were evaluated based on the weekly diary assessments, such as bothersome constipation, bothersome abdominal pain, and satisfaction with bowel habits at the end of the 12-week treatment period (using the baseline value as a co-variant for analysis).
Statistical analysis. Statistical analysis was performed using SAS version 8.2 (The SAS Institute, Cary, N.C., USA). Analysis methods included Fisher's Exact tests, analysis of Covariance (ANCOVA), logistic regression, and Mantel-Haenzel tests to determine odds ratios and 95% confidence intervals, with significance established at p<0.05. Calculation of linkage disequilibrium was performed using the GOLD (graphical overview of linkage disequilibrium) method described by Abecasis & Cookson, Bioinformatics 16: 182-3 (2000).
Secondary efficacy endpoint: response after 12 weeks of treatment. The same comparison as above was performed using the secondary efficacy endpoint of a mean increase of 1 or more CSBM/week over baseline after 12 weeks of treatment. The results for the 12 individual “high responder” SNPs are presented in TABLE 9 and the results using the comparison of individuals with or without at least one of the twelve SNPs is presented in TABLE 10.

[1] = All Caucasians (ITT, >=7 days), Age <65, M + F
[2] = All Caucasians (ITT, >=7 days), Age >=65, M + F
[3] = All Caucasians (ITT, >=7 days), Age All, Female
[4] = All Caucasians (ITT, >=7 days), Age All, M + F
[5] = All Caucasians (ITT, >=7 days), Age All, Male
[6] = All genotyped (ITT, >=7 days), Age <65, M + F
[7] = All genotyped (ITT, >=7 days), Age >=65, M + F
[8] = All genotyped (ITT, >=7 days), Age All, Female
[9] = All genotyped (ITT, >=7 days), Age All, M + F
[10] = All genotyped (ITT, >=7 days), Age All, Male
[11] = All patients (ITT, >=7 days), Age <65, M + F
[12] = All patients (ITT, >=7 days), Age >=65, M + F
[13] = All patients (ITT, >=7 days), Age All, Female
[14] = All patients (ITT, >=7 days), Age All, M + F
[15] = All patients (ITT, >=7 days), Age All, Male
[16] = Caucasians genotyped (ITT, >=7 days), Age <65, M + F
[17] = Caucasians genotyped (ITT, >=7 days), Age >=65, M + F
[18] = Caucasians genotyped (ITT, >=7 days), Age All, Female
[19] = Caucasians genotyped (ITT, >=7 days), Age All, M + F
[20] = Caucasians genotyped (ITT, >=7 days), Age All, Male
[21] = Female (All ages), 0-12 of the 12 SNPs
[22] = Female (All ages), 0 of the 12 SNPs
[23] = Female (All ages), 1-12 of the 12 SNPs
[24] = M + F (<65), 0-12 of the 12 SNPs
[25] = M + F (<65), 1-12 of the 12 SNPs
[26] = M + F (>=65), 0-12 of the 12 SNPs
[27] = M + F (>=65), 1-12 of the 12 SNPs
[28] = M + F (All ages), 0-12 of the 12 SNPs
[29] = M + F (All ages), 0 of the 12 SNPs
[30] = M + F (All ages), 1-12 of the 12 SNPs
[31] = Male (All ages), 0-12 of the 12 SNPs
[32] = Male (All ages), 0 of the 12 SNPs
[33] = Male (All ages), 1-12 of the 12 SNPs

[H]/N=C(/NCCCCC)N/N=C/c1c[nH]c2ccc(OC)cc12 [tegaserod, Tegaserod]
Odds Ratio [1]: 2.8
Odds Ratio [2]: 1.4
Odds Ratio [3]: 2.5
Odds Ratio [4]: 2.5
Odds Ratio [5]: 2.5
Odds Ratio [6]: 2.6
Odds Ratio [7]: 2.6
Odds Ratio [8]: 2.5
Odds Ratio [9]: 2.6
Odds Ratio [10]: 2.9
Odds Ratio [11]: 2.3
Odds Ratio [12]: 1.6
Odds Ratio [13]: 2.2
Odds Ratio [14]: 2.3
Odds Ratio [15]: 2.6
Odds Ratio [16]: 3.0
Odds Ratio [17]: 2.3
Odds Ratio [18]: 2.8
Odds Ratio [19]: 2.8
Odds Ratio [20]: 3.0
% Responders T6 (0 of 14 SNPs): 39%
Odds Ratio (T6 v P) (0 of 14 SNPs): 1.2
% Responders T6 (>=1 of 14 SNPs): 54%
Odds Ratio (T6 v P) (>=1 of 14 SNPs): 4.4
% Responders T6 (AQP3 (1838) genotype CC): 47%
Odds Ratio (T6 v P) (AQP3 (1838) genotype CC): 2.7
% Responders T6 (AQP3 (1838) genotype CG): 49%
Odds Ratio (T6 v P) (AQP3 (1838) genotype CG): 2.5
% Responders T6 (AQP3 (1838) genotype GG): 64%
Odds Ratio (T6 v P) (AQP3 (1838) genotype GG): 8.1
% Responders [1]: 48%
% Responders [2]: 38%
% Responders [3]: 47%
% Responders [4]: 47%
% Responders [5]: 45%
% Responders [6]: 47%
% Responders [7]: 56%
% Responders [8]: 47%
% Responders [9]: 47%
% Responders [10]: 52%
% Responders [11]: 46%
% Responders [12]: 40%
% Responders [13]: 46%
% Responders [14]: 46%
% Responders [15]: 43%
% Responders [16]: 49%
% Responders [17]: 53%
% Responders [18]: 48%
% Responders [19]: 49%
% Responders [20]: 57%
% Responders T6 [21]: 48%
Odds Ratio (T6 v P) [21]: 2.8
% Responders T6 [22]: 36%
Odds Ratio (T6 v P) [22]: 1.4
% Responders T6 [23]: 61%
Odds Ratio (T6 v P) [23]: 5.5
% Responders T6 (HTR3B (3755) genotype AA): 49%
Odds Ratio (T6 v P) (HTR3B (3755) genotype AA): 3.0
% Responders T6 (HTR3B (3755) genotype AC): 47%
Odds Ratio (T6 v P) (HTR3B (3755) genotype AC): 2.3
% Responders T6 (HTR3B (3755) genotype CC): 67%
Odds Ratio (T6 v P) (HTR3B (3755) genotype CC): 5.1
% Responders T6 (HTR4 (1746) genotype CC): 44%
Odds Ratio (T6 v P) (HTR4 (1746) genotype CC): 3.1
% Responders T6 (HTR4 (1746) genotype CT): 49%
Odds Ratio (T6 v P) (HTR4 (1746) genotype CT): 2.6
% Responders T6 (HTR4 (1746) genotype TT): 70%
Odds Ratio (T6 v P) (HTR4 (1746) genotype TT): 3.2
% Responders T6 (HTR4 (3743) genotype AA): 48%
Odds Ratio (T6 v P) (HTR4 (3743) genotype AA): 3.7
% Responders T6 (HTR4 (3743) genotype AC): 52%
Odds Ratio (T6 v P) (HTR4 (3743) genotype AC): 4.7
% Responders T6 (HTR4 (3743) genotype CC): 78%
Odds Ratio (T6 v P) (HTR4 (3743) genotype CC): 8.2
% Responders T6 (HTR4 (3747) genotype AA): 41%
Odds Ratio (T6 v P) (HTR4 (3747) genotype AA): 2.7
% Responders T6 (HTR4 (3747) genotype AT): 54%
Odds Ratio (T6 v P) (HTR4 (3747) genotype AT): 3.1
% Responders T6 (HTR4 (3747) genotype TT): 65%
Odds Ratio (T6 v P) (HTR4 (3747) genotype TT): 3.0
% Responders T6 (HTR4 (3753) genotype CC): 45%
Odds Ratio (T6 v P) (HTR4 (3753) genotype CC): 3.1
% Responders T6 (HTR4 (3753) genotype CT): 50%
Odds Ratio (T6 v P) (HTR4 (3753) genotype CT): 2.7
% Responders T6 (HTR4 (3753) genotype TT): 70%
Odds Ratio (T6 v P) (HTR4 (3753) genotype TT): 3.5
% Responders T6 (HTR4 (3754) genotype AA): 50%
Odds Ratio (T6 v P) (HTR4 (3754) genotype AA): 4.1
% Responders T6 (HTR4 (3754) genotype AT): 45%
Odds Ratio (T6 v P) (HTR4 (3754) genotype AT): 2.0
% Responders T6 (HTR4 (3754) genotype TT): 63%
Odds Ratio (T6 v P) (HTR4 (3754) genotype TT): 2.8
% Responders T6 (HTR4 (3756) genotype AA): 39%
Odds Ratio (T6 v P) (HTR4 (3756) genotype AA): 2.6
% Responders T6 (HTR4 (3756) genotype AC): 54%
Odds Ratio (T6 v P) (HTR4 (3756) genotype AC): 3.0
% Responders T6 (HTR4 (3756) genotype CC): 71%
Odds Ratio (T6 v P) (HTR4 (3756) genotype CC): 4.6
% Responders T6 [24]: 49%
Odds Ratio (T6 v P) [24]: 3.0
% Responders T6 (M + F (<65), 0 of the 12 SNPs): 37%
Odds Ratio (T6 v P) (M + F (<65), 0 of the 12 SNPs): 1.6
% Responders T6 [25]: 62%
Odds Ratio (T6 v P) [25]: 5.6
% Responders T6 [26]: 53%
Odds Ratio (T6 v P) [26]: 2.3
% Responders T6 (M + F (>=65), 0 of the 12 SNPs): 29%
Odds Ratio (T6 v P) (M + F (>=65), 0 of the 12 SNPs): 0.4
% Responders T6 [27]: 70%
Odds Ratio (T6 v P) [27]: 10.1
% Responders T6 [28]: 49%
Odds Ratio (T6 v P) [28]: 2.8
% Responders T6 [29]: 36%
Odds Ratio (T6 v P) [29]: 1.3
% Responders T6 [30]: 63%
Odds Ratio (T6 v P) [30]: 6.0
% Responders T6 (MLN (1783) genotype CC): 49%
Odds Ratio (T6 v P) (MLN (1783) genotype CC): 2.6
% Responders T6 (MLN (1783) genotype CT): 44%
Odds Ratio (T6 v P) (MLN (1783) genotype CT): 2.2
% Responders T6 (MLN (1783) genotype TT): 67%
Odds Ratio (T6 v P) (MLN (1783) genotype TT): 12.0
% Responders T6 [31]: 57%
Odds Ratio (T6 v P) [31]: 3.0
% Responders T6 [32]: 40%
Odds Ratio (T6 v P) [32]: 0.8
% Responders T6 [33]: 73%
Odds Ratio (T6 v P) [33]: 13.3
% Responders T6 (SCNN1A (3806) genotype GG): 62%
Odds Ratio (T6 v P) (SCNN1A (3806) genotype GG): 5.9
% Responders T6 (SCNN1A (3806) genotype GT): 49%
Odds Ratio (T6 v P) (SCNN1A (3806) genotype GT): 2.6
% Responders T6 (SCNN1A (3806) genotype TT): 44%
Odds Ratio (T6 v P) (SCNN1A (3806) genotype TT): 2.2
% Responders T6 (SLC12A2 (1842) genotype AA): 54%
Odds Ratio (T6 v P) (SLC12A2 (1842) genotype AA): 6.2
% Responders T6 (SLC12A2 (1842) genotype AG): 47%
Odds Ratio (T6 v P) (SLC12A2 (1842) genotype AG): 2.7
% Responders T6 (SLC12A2 (1842) genotype GG): 50%
Odds Ratio (T6 v P) (SLC12A2 (1842) genotype GG): 2.5
% Responders T6 (SLC12A2 (3801) genotype CC): 58%
Odds Ratio (T6 v P) (SLC12A2 (3801) genotype CC): 7.9
% Responders T6 (SLC12A2 (3801) genotype CT): 49%
Odds Ratio (T6 v P) (SLC12A2 (3801) genotype CT): 2.4
% Responders T6 (SLC12A2 (3801) genotype TT): 50%
Odds Ratio (T6 v P) (SLC12A2 (3801) genotype TT): 2.9
% Responders T6 (TPH1 (1756) genotype GG): 51%
Odds Ratio (T6 v P) (TPH1 (1756) genotype GG): 6.1
% Responders T6 (TPH1 (1756) genotype GT): 51%
Odds Ratio (T6 v P) (TPH1 (1756) genotype GT): 2.4
% Responders T6 (TPH1 (1756) genotype TT): 45%
Odds Ratio (T6 v P) (TPH1 (1756) genotype TT): 2.2
% Responders T6 (TPH1 (3784) genotype CC): 41%
Odds Ratio (T6 v P) (TPH1 (3784) genotype CC): 1.9
% Responders T6 (TPH1 (3784) genotype CT): 52%
Odds Ratio (T6 v P) (TPH1 (3784) genotype CT): 2.5
% Responders T6 (TPH1 (3784) genotype TT): 51%
Odds Ratio (T6 v P) (TPH1 (3784) genotype TT): 5.8
% Responders T6 (all genotypes): 49%
Odds Ratio (T6 v P) (all genotypes): 2.8
% Responders T6 (all genotypes (Table 11)): 49%
Odds Ratio (T6 v P) (all genotypes (Table 11)): 2.8
response rate (high responder genotypes of HTR4, tegaserod-treated patients): > 60%
